US10945434B2, “Azole derivative, intermediate compound, method for producing azole derivative, agricultural or horticultural chemical agent, and protective agent for industrial material” (priority 2017, dated 2021)

Columns and labels:
[1] = tested on: puccinia recondite-causing germs; experiment: Puccinia Recondite control effect test (spray on wheat); assay type: in vivo
[2] = tested on: puccinia recondite-causing germs; conditions: in vivo
[3] = tested on: gray mold fungi; experiment: Cucumber gray mold disease control effect test; assay type: in vivo, Botrytis cinerea; conditions: 100 g/ha; spray on cotyledon cucumber; 4 days after the inoculation
Experimental: The compounds of the present invention were adjusted to a predetermined concentration ([…]) according to Test Example 2 in a cotyledon cucumber (variety: Sagami Hanjiro Cucumber) cultivated using a rectangular plastic pot (6 cm×6 cm), and sprayed at a ratio of 1,000 L/ha. After air-drying the spray leaves, a paper disc (8 mm in diameter) impregnated with the spore solution of gray mold fungi was placed and kept at 20° C. under high humidity conditions. On 4 days after the inoculation, a morbidity of cucumber gray mold disease was examined, and a control value was calculated by the following Equation. Control value (%)=(1−average morbidity of sprayed area/average morbidity of unsprayed area)×100
In addition, the morbidity was determined based on the following Table 12.

[4] = tested on: Septoria tritici; conditions: in vivo
Experimental: The severity of flag leaf and second leaf was evaluated after 50 days lapsed after the second spraying. The control value was calculated from the average severity of the flag leaf and the second leaf. Control value (%)=(1−average severity of treated area/average severity of untreated area)×100

[5] = 3.13 g/ha, spray on second leaf stage wheat, 14 days after the inoculation

SMILES: COC(=O)C(O)(Cn1cncn1)c1ccc(Oc2cccc(Cl)c2)cc1Cl (stereo not shown) [Compound I-20, methyl 2-(2-chloro-4-(3-chlorophenoxy)phenyl)-2-hydroxy-3-(1H-1,2,4-triazol-1-yl)propanoate]
- control value [1, 5]: 80%

SMILES: COC(=O)C(O)(Cn1cncn1)c1ccc(Oc2ccc(Cl)cc2)cc1Cl (stereo not shown) [Compound I-1, methyl 2-hydroxy-2-(2-chloro-4-(4-chlorophenoxy)phenyl)-3-(1H-1,2,4-triazol-1-yl)propanoate]
- control value [1, 5]: 73%
- Control value (%) [2]: 99%

SMILES: COC(=O)C(O)(Cn1cncn1)c1ccc(Oc2ccccc2)cc1 (stereo not shown) [control compound B, methyl 2-hydroxy-2-(4-phenoxyphenyl)-3-(1H-1,2,4-triazol-1-yl)propanoate]
- control value [3]: 0%

SMILES: CC(O)(Cn1cncn1)c1ccc(Oc2ccc(Cl)cc2)cc1C(F)(F)F (stereo not shown)
- control value ([1]; in vivo): 20%
- Control value (%) [2]: 86%
- control value [4]: 88%
